Laboratory results reported in patent US20250257061A1, “COMPOSITIONS AND METHODS FOR TREATING CANCER AND REDUCING WNT MEDIATED EFFECTS” (StemSynergy Therapeutics, Inc., priority 2024, published 2025).
Like-named read-outs stand apart in the source and are kept apart here.

What was measured:
[1] = tested on: Wnt reporter (TCF/LEF1 promoter); test: HEK STF293 Wnt reporter (TOPFlash) luciferase assay, Steady Glo normalised to Cell Titer; assay type: cell-based, human; settings: Homo sapiens, STF/293, HEK STF293 cells, Wnt3a-conditioned media, read-out: TOPFlash IC50 category
Method: All compounds were tested using the human cell line HEK STF293. This cell line carries a Wnt reporter (TCF/LEF1 promoter), which drives expression of the firefly luciferase protein. The level of Wnt activity is directly correlated with the level of luciferase activity (determined using a simple assay). Compounds that inhibit Wnt signaling by reducing luciferase activity in these two cell lines are further tested biochemically. […] Compounds were further tested in a Viability assay using Wnt-dependent HCT116 cell line. Compounds were prepared as 10 mM stocks for each compound in DMSO. Dilutions were prepared in a 96-well plate in DMSO. The stock dilutions are as follows: 10 mM, 1 mM, 100 μM, 10 μM, 100 nM, and 10 nM. Plates were sealed and stored at −20° C. […] On the first day, Wnt3a-conditioned media (1:1) were added along with diluted compounds (1:100). […] The final concentrations should therefore be 100 μM, 10 μM, 1 μM, 100 nM, 10 nM, and 1 nM. On the second day, the media was removed and 75 μL of Passive Lysis Buffer (Promega) is added to each well. The plate was shaken at 130 rpm for 15 minutes. For the Steady Glo assay, 45 μL of the lysis was removed and added to a white 96-well plate containing 45 μL/well of Steady Glo solution (Promega). For the Cell Titer assay, 25 μL of the lysis was transferred to a white 96-well plate containing 25 μL/well of Cell Titer solution (Promega). Both Steady Glo and Cell Titer assays were read with a luminescence plate reader. When determining EC50, the Steady Glo values were divided by the Cell Titer values to normalize for cell number. All compounds were tested using the human cell line HEK STF293. This cell line carries a Wnt reporter (TCF/LEF1 promoter), which drives expression of the firefly luciferase protein. The level of Wnt activity is directly correlated with the level of luciferase activity (determined using a simple assay). Compounds that inhibit Wnt signaling by reducing luciferase activity in these two cell lines are further tested biochemically. […] Compounds were further tested in a Viability assay using Wnt-dependent HCT116 cell line. Compounds were prepared as 10 mM stocks for each compound in DMSO. Dilutions were prepared in a 96-well plate in DMSO. The stock dilutions are as follows: 10 mM, 1 mM, 100 μM, 10 μM, 100 nM, and 10 nM. Plates were sealed and stored at −20° C. […] On the first day, Wnt3a-conditioned media (1:1) were added along with diluted compounds (1:100). […] The final concentrations should therefore be 100 μM, 10 μM, 1 μM, 100 nM, 10 nM, and 1 nM. On the second day, the media was removed and 75 μL of Passive Lysis Buffer (Promega) is added to each well. The plate was shaken at 130 rpm for 15 minutes. For the Steady Glo assay, 45 μL of the lysis was removed and added to a white 96-well plate containing 45 μL/well of Steady Glo solution (Promega). For the Cell Titer assay, 25 μL of the lysis was transferred to a white 96-well plate containing 25 μL/well of Cell Titer solution (Promega). Both Steady Glo and Cell Titer assays were read with a luminescence plate reader. When determining EC50, the Steady Glo values were divided by the Cell Titer values to normalize for cell number. All compounds were tested using the human cell line HEK STF293. This cell line carries a Wnt reporter (TCF/LEF1 promoter), which drives expression of the firefly luciferase protein. The level of Wnt activity is directly correlated with the level of luciferase activity (determined using a simple assay). Compounds that inhibit Wnt signaling by reducing luciferase activity in these two cell lines are further tested biochemically. […] Compounds were further tested in a Viability assay using Wnt-dependent HCT116 cell line. Compounds were prepared as 10 mM stocks for each compound in DMSO. Dilutions were prepared in a 96-well plate in DMSO. The stock dilutions are as follows: 10 mM, 1 mM, 100 μM, 10 μM, 100 nM, and 10 nM. Plates were sealed and stored at −20° C. […]

[2] = tested on: Wnt-dependent HCT116 cell line; test: Viability assay using Wnt-dependent HCT116 cell line (Cell Titer Glo); assay type: cell-based; settings: Homo sapiens, HCT-116, HCT116 cells, read-out: Viability IC50 category
Method: All compounds were tested using the human cell line HEK STF293. This cell line carries a Wnt reporter (TCF/LEF1 promoter), which drives expression of the firefly luciferase protein. The level of Wnt activity is directly correlated with the level of luciferase activity (determined using a simple assay). Compounds that inhibit Wnt signaling by reducing luciferase activity in these two cell lines are further tested biochemically. […] Compounds were further tested in a Viability assay using Wnt-dependent HCT116 cell line. HEK293 cells were seeded in a 6-well plate at approximately 8.0×10^5 cells (2 mL per well). On the first day, Wnt3a-conditioned media (1:1) and compounds (1:100) were added to the plated cells. The final concentrations of compounds were 1 μM, 500 nM, and 100 nM. Vehicle (DMSO) and a Wnt3a-conditioned media plus Vehicle samples were also prepared as controls. Lysates were collected (with non-denaturing lysis buffer) after 24 hours incubation, and protein concentrations determined by Bradford Assay. Immunoblotting with an anti-beta-catenin antibody (equivalent amounts of protein/lane for each condition) were subsequently performed to determine beta-catenin levels. HCT116 cells were seeded at 2,500 cells/well in a 96-well dish (Volume: 100 μL/well). On the second day, the 10 mM stock solution of each test compound was thawed at room temperature. Dilutions of the test compound were prepared in DMSO in a V-bottom 96-well plate. The stock compound solution, DMSO-diluted compound solutions, and DMSO were further diluted 500-fold in cell culture media, and 100 μL of the compound- or DMSO-containing cell culture media was added to each well of the cells. […] The final DMSO concentration was 0.1% in all wells. On the fifth day, 150 μL of media was removed from each well. 50 μL/well Cell Titer Glo reagent (Promega) was added to each well. The plate was shaken at 130 rpm for 15 minutes at room temperature, and the cell viability was determined using a luminescence plate reader. All compounds were tested using the human cell line HEK STF293. This cell line carries a Wnt reporter (TCF/LEF1 promoter), which drives expression of the firefly luciferase protein. The level of Wnt activity is directly correlated with the level of luciferase activity (determined using a simple assay). Compounds that inhibit Wnt signaling by reducing luciferase activity in these two cell lines are further tested biochemically. […] Compounds were further tested in a Viability assay using Wnt-dependent HCT116 cell line. HEK293 cells were seeded in a 6-well plate at approximately 8.0×10^5 cells (2 mL per well). On the first day, Wnt3a-conditioned media (1:1) and compounds (1:100) were added to the plated cells. The final concentrations of compounds were 1 μM, 500 nM, and 100 nM. Vehicle (DMSO) and a Wnt3a-conditioned media plus Vehicle samples were also prepared as controls. Lysates were collected (with non-denaturing lysis buffer) after 24 hours incubation, and protein concentrations determined by Bradford Assay. Immunoblotting with an anti-beta-catenin antibody (equivalent amounts of protein/lane for each condition) were subsequently performed to determine beta-catenin levels. HCT116 cells were seeded at 2,500 cells/well in a 96-well dish (Volume: 100 μL/well). On the second day, the 10 mM stock solution of each test compound was thawed at room temperature. Dilutions of the test compound were prepared in DMSO in a V-bottom 96-well plate. The stock compound solution, DMSO-diluted compound solutions, and DMSO were further diluted 500-fold in cell culture media, and 100 μL of the compound- or DMSO-containing cell culture media was added to each well of the cells. […] The final DMSO concentration was 0.1% in all wells. On the fifth day, 150 μL of media was removed from each well. 50 μL/well Cell Titer Glo reagent (Promega) was added to each well. The plate was shaken at 130 rpm for 15 minutes at room temperature, and the cell viability was determined using a luminescence plate reader. […]

[3] = Examples for Formulae (VIII), (IX), and (X)
[4] = Examples for Formulae (I), (II), and (III)
[5] = Examples for Formulae (IV), (V), (VI), and (VII)

IC50 [2, 3] | IC50 [2, 4] | IC50 [2, 5] | Compound | IC50 [1, 3] | IC50 [1, 4] | IC50 [1, 5]
< 200 nM | – | – | CS(=O)(=O)c1ccc(-n2nccc2C(=O)Nc2nc(-c3ccccn3)co2)cc1 [Example 1] | 200 to 500 nM | – | –
– | 1000 to 10000 nM | – | Cc1c(C(=O)Nc2nc(-c3ccccn3)cs2)cnn1Cc1ccccc1 [Example 1] | – | 1000 to 10000 nM | –
– | – | 200 to 500 nM | Cc1onc(-c2cccs2)c1C(=O)Nc1nc(-c2ccccn2)cs1 [Example 1] | – | – | < 200 nM
– | 500 to 1000 nM | – | Cn1cc(C(=O)Nc2nc(-c3ccccn3)cs2)c(-c2ccccc2Cl)n1 [Example 2] | – | 1000 to 10000 nM | –
500 to 1000 nM | – | – | O=C(Nc1nc(-c2ccccn2)cs1)c1ccc(=O)n(-c2ccc(F)cc2)c1 [Example 2] | 200 to 500 nM | – | –
– | – | 200 to 500 nM | O=C(Nc1nc(-c2ccccn2)cs1)c1ocnc1-c1ccccc1 [Example 2] | – | – | < 200 nM
– | 1000 to 10000 nM | – | COc1ccc(Cn2cc(C(=O)Nc3nc(-c4ccccn4)cs3)cn2)cc1 [Example 3] | – | 1000 to 10000 nM | –
– | – | 200 to 500 nM | Cc1noc(-c2ccccc2)c1C(=O)Nc1nc(-c2ccccn2)cs1 [Example 3] | – | – | 200 to 500 nM
500 to 1000 nM | – | – | O=C(Nc1nc(-c2ccccn2)cs1)c1ccc(=O)n(-c2ccccc2F)c1 [Example 3] | 200 to 500 nM | – | –
– | 1000 to 10000 nM | – | Cc1nn(Cc2ccccc2)c(C)c1C(=O)Nc1nc(-c2ccccn2)cs1 [Example 4] | – | 500 to 1000 nM | –
– | – | 200 to 500 nM | Cc1onc(-c2ccc(F)cc2)c1C(=O)Nc1nc(-c2ccccn2)cs1 [Example 4] | – | – | < 200 nM
500 to 1000 nM | – | – | O=C(Nc1nc(-c2ccccn2)cs1)c1ccc(=O)n(Cc2ccc(F)cc2)c1 [Example 4] | 500 to 1000 nM | – | –
– | 1000 to 10000 nM | – | Cc1nn(-c2ccc(F)cc2)c(C)c1C(=O)Nc1nc(-c2ccccn2)cs1 [Example 5] | – | 1000 to 10000 nM | –
– | – | 200 to 500 nM | Cc1onc(-c2cccc(F)c2)c1C(=O)Nc1nc(-c2ccccn2)cs1 [Example 5] | – | – | 200 to 500 nM
200 to 500 nM | – | – | O=C(Nc1nc(-c2ccccn2)cs1)c1ccc(=O)n(Cc2ccccc2Cl)c1 [Example 5] | 200 to 500 nM | – | –
– | 500 to 1000 nM | – | Cc1nn(Cc2ccc(F)cc2)c(C)c1C(=O)Nc1nc(-c2ccccn2)cs1 [Example 7] | – | 500 to 1000 nM | –
– | – | 200 to 500 nM | Cc1onc(-c2ccccc2F)c1C(=O)Nc1nc(-c2ccccn2)cs1 [Example 7] | – | – | 200 to 500 nM
200 to 500 nM | – | – | O=C(Nc1nc(-c2ccccn2)cs1)c1ccc(=O)n(Cc2ccc(C(F)(F)F)cc2)c1 [Example 7] | 200 to 500 nM | – | –
– | – | < 200 nM | Cc1nc(-c2ccc(F)cc2)c(C(=O)Nc2nc(-c3ccccn3)cs2)o1 [Example 8] | – | – | < 200 nM
– | 500 to 1000 nM | – | Cc1nn(-c2ccc(F)cc2F)c(C)c1C(=O)Nc1nc(-c2ccccn2)cs1 [Example 8] | – | 500 to 1000 nM | –
200 to 500 nM | – | – | O=C(Nc1nc(-c2ccccn2)cs1)c1cc(Cl)c(=O)n(Cc2ccc(C(F)(F)F)cc2)c1 [Example 8] | 500 to 1000 nM | – | –
– | – | < 200 nM | Cc1nc(-c2ccc(Cl)cc2)c(C(=O)Nc2nc(-c3ccccn3)cs2)o1 [Example 9] | – | – | < 200 nM
– | 500 to 1000 nM | – | Cc1nn(Cc2ccc(F)cc2)c(Cl)c1C(=O)Nc1nc(-c2ccccn2)cs1 [Example 9] | – | 500 to 1000 nM | –
1000 to 10000 nM | – | – | O=C(Nc1nc(-c2ccccn2)cs1)c1ccn(Cc2ccc(F)cc2)c(=O)c1 [Example 9] | 1000 to 10000 nM | – | –
– | 1000 to 10000 nM | – | Cc1ccc(Cn2nc(C)c(C(=O)Nc3nc(-c4ccccn4)cs3)c2C)cc1 [Example 10] | – | 500 to 1000 nM | –
– | – | 200 to 500 nM | Cc1nc(-c2ccccc2F)c(C(=O)Nc2nc(-c3ccccn3)cs2)o1 [Example 10] | – | – | < 200 nM
500 to 1000 nM | – | – | O=C(Nc1nc(-c2ccccn2)cs1)c1ccn(Cc2ccc(C(F)(F)F)cc2)c(=O)c1 [Example 10] | 500 to 1000 nM | – | –
– | 500 to 1000 nM | – | Cc1nn(-c2ccccc2Cl)c(C(F)F)c1C(=O)Nc1nc(-c2ccccn2)cs1 [Example 12] | – | 200 to 500 nM | –
500 to 1000 nM | – | – | O=C(Nc1nc(-c2ccccn2)cs1)c1cccnc1-c1ccc(F)cc1 [Example 12] | 200 to 500 nM | – | –
– | – | 200 to 500 nM | O=C(Nc1nc(-c2ccccn2)cs1)c1ocnc1-c1ccc(F)cc1F [Example 12] | – | – | 200 to 500 nM
